One data set has as its target Cytochrome P450 2C19 (Homo sapiens, UniProt P33261). The experiment in a line: Cytochrome panel assay with activity outcomes. Panel member name: p450-cyp2c19 Compounds with AC50 equal or less than 10 uM are considered active. It is filed as functional.
For data set [1], the target named is T1, Heat shock factor protein 1 (Mus musculus, UniProt P38532).
T1 sequence (P38532 whole entry): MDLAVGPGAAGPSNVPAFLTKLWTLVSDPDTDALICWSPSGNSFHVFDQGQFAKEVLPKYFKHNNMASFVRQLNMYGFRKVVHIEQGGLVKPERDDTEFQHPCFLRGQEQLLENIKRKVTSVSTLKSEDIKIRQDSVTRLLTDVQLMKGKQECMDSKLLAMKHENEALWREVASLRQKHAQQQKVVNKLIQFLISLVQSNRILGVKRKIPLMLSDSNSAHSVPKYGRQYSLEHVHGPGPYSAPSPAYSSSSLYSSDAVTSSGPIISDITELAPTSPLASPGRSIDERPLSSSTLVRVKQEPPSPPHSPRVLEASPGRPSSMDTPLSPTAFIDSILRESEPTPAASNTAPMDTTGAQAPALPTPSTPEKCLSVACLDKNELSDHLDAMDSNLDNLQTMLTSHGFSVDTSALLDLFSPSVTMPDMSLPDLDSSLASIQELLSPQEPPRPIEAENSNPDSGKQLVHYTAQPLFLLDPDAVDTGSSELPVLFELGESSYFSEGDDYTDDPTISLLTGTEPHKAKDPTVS
Nature of the data set: inhibition of MG132-induced HSE-luciferase signal, confirmation, cell-based, NIH3T3, luminescence, dose retest (AID 2382).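 Further: NIH3T3 fibroblasts with HSF1-driven luciferase reporter stressed by proteasome inhibitor MG132; luminescence from HSF1-driven luciferase expression after 8 hours of MG132 stress.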 It is filed as functional.

The nature of data set [2]: inhibitors of intracellular T. cruzi replication, confirmation, NIH3T3 host cells, beta-gal luminescence (AID 2044).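 Further: intracellular parasites grown in NIH/3T3 mouse fibroblasts as host cells; luminescent beta-galactosidase reporter signal from transgenic T. cruzi replicating inside host cells; inhibitors lower the luminescence signal.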 The data set is classed as functional, cell-based.
Data set [3] in a line: cytotoxicity toward NIH3T3 fibroblasts, dose response, counter-screen, cell-based, ATP luminescence, mouse fibroblasts (AID 2010).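 Further: cells exposed to compound for about 90 hours before reading.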 The data set is classed as functional.
The next data set has as its target Cytochrome P450 3A4 (Homo sapiens, UniProt P08684).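 Further: CYP3A4 tested as one member of a cytochrome P450 panel screen.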
The test system of data set [4] is Streptococcus sp. 'group A'. The experiment in a line: growth inhibition of control SK(-) GAS strain, dose response, counter-screen for streptokinase expression inhibitor project, luminescence, kanamycin, BacTiterGlo, confirmation (AID 1900). The data set is classed as functional, organism-based. In general terms: A counterscreen serves to expose hits that act by an unwanted route or on another target.

The subject of another data set is Streptococcus. The experiment in a line: Group A Streptococcus viability loss, dose response, counter-screen for streptokinase expression inhibitor project, luminescence, BacTiterGlo (AID 1915).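 Further: potency for reduction of bacterial viability or growth.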 It is filed as functional, organism-based.

Molecules are shown by their SMILES. The source made the active and inactive calls.

Chain of Cytochrome P450 2C19 (P33261 whole entry): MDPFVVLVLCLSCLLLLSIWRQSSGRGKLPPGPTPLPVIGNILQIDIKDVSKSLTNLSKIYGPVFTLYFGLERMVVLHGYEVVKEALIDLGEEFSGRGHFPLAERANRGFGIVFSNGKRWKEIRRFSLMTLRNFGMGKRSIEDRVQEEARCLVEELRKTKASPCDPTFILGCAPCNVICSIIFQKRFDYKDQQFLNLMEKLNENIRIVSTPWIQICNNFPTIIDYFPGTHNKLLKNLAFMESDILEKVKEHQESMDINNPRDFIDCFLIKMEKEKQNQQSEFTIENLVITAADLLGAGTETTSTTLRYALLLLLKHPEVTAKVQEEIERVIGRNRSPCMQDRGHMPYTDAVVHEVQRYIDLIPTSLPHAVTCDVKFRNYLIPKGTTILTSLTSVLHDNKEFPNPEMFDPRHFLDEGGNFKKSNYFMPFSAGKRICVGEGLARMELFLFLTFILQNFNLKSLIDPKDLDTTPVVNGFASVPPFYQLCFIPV
Chain of Cytochrome P450 3A4 (P08684 whole entry): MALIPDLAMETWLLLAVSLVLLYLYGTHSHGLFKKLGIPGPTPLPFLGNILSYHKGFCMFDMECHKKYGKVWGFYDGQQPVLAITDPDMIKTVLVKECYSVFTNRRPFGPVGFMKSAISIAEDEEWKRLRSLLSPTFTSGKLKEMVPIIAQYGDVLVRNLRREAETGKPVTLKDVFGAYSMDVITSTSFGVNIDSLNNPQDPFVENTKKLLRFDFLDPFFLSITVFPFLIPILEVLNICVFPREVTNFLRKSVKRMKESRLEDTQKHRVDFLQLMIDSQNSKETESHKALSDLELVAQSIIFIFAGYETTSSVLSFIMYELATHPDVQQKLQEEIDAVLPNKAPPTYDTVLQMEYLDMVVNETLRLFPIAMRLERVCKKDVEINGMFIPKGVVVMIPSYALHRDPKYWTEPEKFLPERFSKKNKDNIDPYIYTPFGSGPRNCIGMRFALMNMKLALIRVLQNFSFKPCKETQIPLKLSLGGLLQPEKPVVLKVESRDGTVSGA

Broadly, the AC50 is the midpoint of the concentration-response curve, whichever way the signal moves. On to `N[C@H](CCCC(=O)O)C(=O)O`, for which the AC50 entry at Cytochrome P450 2C19 is given as “inconclusive”.

The term EC50 denotes the concentration needed to bring the measured effect to its halfway point. As for `O=C(O)C1C2C=CC(O2)C1C(=O)Nc1ccc2c(c1)OCCO2` (configuration not stated), the EC50 in data set [1] is 25.9 µM (active).

On to `COc1cc(NC(=O)c2cc(-c3ccc4c(c3)OCO4)on2)cc(OC)c1OC`, for which the EC50 in data set [2] was 0.115 µM (active); in data set [3], > 30 µM (not active).

In the case of `Cn1c(=O)c2nc(CCS)[nH]c2n(C)c1=O`, on Cytochrome P450 3A4, the AC50 was 10 µM (inconclusive).

For `Cc1ccc(OCC(=O)Nc2cnc(O)nc2O)cc1C`, the EC50 in data set [1] is on record as > 195 µM (not active).

For the compound `CC(C)Cn1c(N)c(C(=O)CSc2nc3ccccc3c(=O)n2CCCN2CCOCC2)c(=O)n(C)c1=O`, the results for the 50% effective concentration (EC50) in data set [2] and in data set [3] were 1.5 µM (active) and > 60 µM (not active), respectively.

With `CCOc1ccc(C(=O)COC(=O)Cc2nnc(O)c3ccccc23)cc1`, in data set [1], the half-maximal effective concentration (EC50) is on record as > 195 µM (not active).

On to `OC(COc1ccc(F)cc1Cl)CN1CCC(Cc2ccccc2)CC1` (configuration not stated), for which the EC50 in data set [2] was 4.04 µM (active); in data set [3], > 30 µM (not active).

As to `CN1CCN(c2nc(Nc3cccc(C(F)(F)F)c3)nc(N3CCOCC3)n2)CC1`, the figures for the half-maximal effective concentration (EC50) in data set [2] and in data set [3] were 1.78 µM (active) and 10.3 µM (active), respectively.

Consider `Cc1ccc(-n2c(=O)cc(N3CCN(Cc4ccccc4)CC3)[nH]c2=O)cc1`, for which the EC50 in data set [1] is > 195 µM (not active).

On to `CC(C)CCNC(=O)c1ccc2c(SCC(=O)O)c3c(nc2c1)CCC3`, for which the EC50 in data set [1] is recorded as > 195 µM (not active).

Take `Cc1nn(-c2ccc([N+](=O)[O-])cc2)c2c1C(c1ccc(OC(F)F)cc1)N1C(=N2)C(=O)Nc2ccccc21` (configuration not stated): the results for the EC50 in data set [2] and in data set [3] were 1.31 µM (active) and > 60 µM (not active), respectively.

In the case of `COC(=O)CSc1ccc2nnc(-c3ccc(F)cc3)n2n1`, the AC50 on Cytochrome P450 2C19 (read-out: AC50) is 28.2 µM (inconclusive).

Take `CCOC(=O)c1cc2c(C(F)(F)F)cc(-c3ccccc3)nc2o1`: on Cytochrome P450 2C19 (read-out: AC50), the AC50 was 25.1 µM (inconclusive).

Consider `Cc1nc2cnc(Nc3ccccc3)nc2n(C[C@H]2CCCO2)c1=O`, for which, at Cytochrome P450 3A4, the AC50 is 15.8 µM (inconclusive).

As for `Clc1ccc(CNCCCSc2ncccn2)cc1Cl`, the concentration for a half-maximal effect (EC50) in data set [2] was 1.19 µM (active); in data set [3], > 60 µM (not active).

Take `Cc1cc(Nc2ccc3c(c2)OCCO3)c2cc(Cl)ccc2n1`: the EC50 in data set [1] is 17.2 µM (active).

`CC1(C)OC(=O)N(Cc2ccco2)C1(C)O` (configuration not stated): the AC50 on Cytochrome P450 2C19 (read-out: AC50) is 14.1 µM (inconclusive).

As for `CCN(CC)S(=O)(=O)c1ccc(C(=O)Nc2ncn(Cc3ccccc3)n2)cc1`, on Cytochrome P450 2C19 (read-out: AC50), the AC50 is 25.1 µM (inconclusive).

As for `Cc1c(C2=CCN(S(=O)(=O)c3ccc(Br)cc3)CC2)c2ccccc2n1C`, the EC50 in data set [1] was > 195 µM (not active).

On to `Cc1ccc(S(=O)(=O)NCCSc2nnnn2C)cc1`, for which the AC50 on Cytochrome P450 3A4 was 14.1 µM (inconclusive).

For the compound `Cc1nc(C)c(-c2nnc(-c3cccc(S(=O)(=O)N(C)C)c3)o2)cc1C(=O)NN`, in data set [1], the concentration giving a half-maximal response (EC50) is recorded as > 195 µM (not active).

On to `CCOC(=O)c1nc(Nc2cc(C)cc(C)c2)c2ccccc2n1`, for which the EC50 was 2.85 µM (active) in data set [2] and > 30 µM (not active) in data set [3].

Regarding `O=C(NCCc1csc(-c2ccccc2)n1)c1ccccc1F`, the EC50 was 0.531 µM (active) in data set [2] and > 60 µM (not active) in data set [3].

Regarding `NS(=O)(=O)c1ccc(Nc2nc(-c3cccc([N+](=O)[O-])c3)cs2)cc1`, the EC50 in data set [2] was 4.08 µM (active); in data set [3] it was > 60 µM (not active).

Regarding `CC12CCC3C(CC=C4CC5(CCC43C)OCCO5)C1CCC2=O` (configuration not stated), in data set [1], the EC50 is recorded as > 195 µM (not active).

`COCCn1c(=O)c(-c2cccs2)nc2cnc(OCc3ccccc3)nc21`: the AC50 at Cytochrome P450 3A4 is 3.16 µM (inconclusive).

With `C/C=C(\C)CN1CCC(n2nccc2NC(=O)c2ccc(OC)cc2)CC1`, the figures for the half-maximal effective concentration (EC50) in data set [2] and in data set [3] were 0.703 µM (active) and > 60 µM (not active), respectively.

For `COc1ccccc1CN1CCCC(CN(CCN(C)C)C(=O)C2CCCC2)C1` (configuration not stated), in data set [1], the concentration for a half-maximal effect (EC50) is on record as > 195 µM (not active).

On to `O=S(=O)(Nc1cccc(Oc2cnccn2)c1)c1ccc(F)cc1`, for which the EC50 in data set [1] is listed as > 195 µM (not active).

For the compound `COc1cccc(-c2cc(NCc3cnc(C)cn3)ncn2)c1`, the AC50 at Cytochrome P450 2C19 (read-out: AC50) was 0.398 µM (inconclusive).

For `Cc1ccc([C@@]2(C)CC/C(=N/N=C3\CC[C@](C)(c4ccc(C)c(C)c4)c4cc(C)c(C)cc43)c3cc(C)c(C)cc32)cc1C`, the AC50 result at Cytochrome P450 2C19 is reported as “inconclusive”.

As for `CN1CCN(c2ncnc3ccc(-c4ccc(C(=O)N(C)C)cc4)cc23)CC1`, the AC50 at Cytochrome P450 3A4 is 25.1 µM (inconclusive).

Regarding `CCOCCn1c(SCC(=O)OCc2ccccc2)nc2c1c(=O)[nH]c(=O)n2C`, the EC50 in data set [1] was > 195 µM (not active).

In the case of `O=C(NCc1ccccc1)c1onc(CSc2ccccc2)c1C(=O)NCC1CC1`, the EC50 in data set [2] is 4.28 µM (active); in data set [3], > 60 µM (not active).

`CCOc1cccc(CN2CCCC(CCC(=O)NCc3ccccc3F)C2)c1O` (configuration not stated): the EC50 in data set [2] is 0.222 µM (active); in data set [3] it was > 60 µM (not active).

Consider `CCOc1ccc(CN(C)CC(=O)Nc2cc(OC)c([N+](=O)[O-])cc2C)cc1`, for which the figures for the half-maximal effective concentration (EC50) in data set [2] and in data set [3] were 0.404 µM (active) and > 30 µM (not active), respectively.

As for `O=C(CN1CCN(Cc2ccccc2)CC1)c1ccc(Br)cc1`, the concentration at half-maximal activity (AC50) at Cytochrome P450 3A4 and on Cytochrome P450 2C19 (read-out: AC50) was 14.1 µM (inconclusive) each time.

As to `Cc1cc(/C=C2\SC(=O)NC2=O)c(C)n1-c1ccc(N2CCOCC2)cc1`, the EC50 in data set [4] was 1.32 µM (active); in the data set with Streptococcus, 4.72 µM (active).

`NS(=O)(=O)c1ccc(/N=N\c2cc3ccccc3c(C(=O)O)c2O)cc1`: the half-maximal activity concentration (AC50) on Cytochrome P450 3A4 was 3.16 µM (inconclusive).

As for `COC(=O)N1CCC2(CCN(Cc3ccc(C#N)cc3)CC2)CC1`, the AC50 at Cytochrome P450 2C19 (read-out: AC50) was 0.1 µM (inconclusive).

On to `CC(NC(=O)CN1C(=O)NC(Cc2ccccc2)(Cc2ccccc2)C1=O)C12CC3CC(CC(C3)C1)C2` (configuration not stated), for which the EC50 in data set [2] was 2.81 µM (active); in data set [3], > 30 µM (not active).

In the case of `Brc1ccccc1OCCCCCN1CCCC1`, the EC50 in data set [2] was 2.22 µM (active); in data set [3], > 30 µM (not active).

For `CCOC(=O)N1CCN(CC(O)COC2CC(C)CC(C)(C)C2)CC1` (configuration not stated), in data set [1], the 50% effective concentration (EC50) was > 195 µM (not active).

Turning to `Cc1nnc(Sc2cc(C(=O)NCCCN(C)Cc3ccccc3)c3ccccc3n2)s1`, the EC50 is 0.521 µM (active) in data set [2] and > 60 µM (not active) in data set [3].

Consider `O=C(c1ccc(CN2CCc3ccccc3C2)cc1)N1CCc2ccccc2C1`, for which the AC50 on Cytochrome P450 3A4 was 3.98 µM (inconclusive).

In the case of `CN(C)c1ccc(-c2noc(C3CCN(C(=O)Nc4ccc(Cl)cc4)CC3)n2)cc1`, the EC50 in data set [1] is > 195 µM (not active).

Regarding `CCCCN1C(=O)NC(=O)/C(=C(/CC)NCc2ccc(F)cc2)C1=O`, on Cytochrome P450 3A4, the AC50 was 28.2 µM (inconclusive).

Regarding `c1cncc(-c2nc(N3CCNCC3)c3ccccc3n2)c1`, the AC50 on Cytochrome P450 3A4 is 31.6 µM (inconclusive).

For `COc1ncc2ncc(=O)n(Cc3cccs3)c2n1`, on Cytochrome P450 3A4, the AC50 is 1.26 µM (inconclusive).

As to `CN(C)CCCN(C(=O)c1ccc(S(=O)(=O)N2CCc3ccccc32)cc1)c1nc2c(Cl)cccc2s1`, the figures for the 50% effective concentration (EC50) in data set [2] and in data set [3] were 0.206 µM (active) and 20.2 µM (active), respectively.

For the compound `O=C(c1ccccc1)N1CCN(CC2CC=CCC2)CC1` (configuration not stated), the EC50 in data set [1] was > 195 µM (not active).

On to `CC(C)N(CCC(=O)c1ccc2ccccc2c1)Cc1ccccc1`, for which, on Cytochrome P450 3A4, the AC50 is 39.8 µM (inconclusive).

These data come from ChEMBL document CHEMBL1201862, “PubChem BioAssay data set” (2004).
